Reference: the supplement of paper PMC10307832

Experiments:
Assay in all cases: relative viability (nuclei count vs DMSO), 5 days (fraction); higher = more cells survive
Vemurafenib + Foretinib = compound: CCCS(=O)(=O)Nc1ccc(F)c(C(=O)c2c[nH]c3ncc(-c4ccc(Cl)cc4)cc23)c1F [Vemurafenib] + COc1cc2c(Oc3ccc(NC(=O)C4(C(=O)Nc5ccc(F)cc5)CC4)cc3F)ccnc2cc1OCCCN1CCOCC1 [Foretinib] (partner 0.25 µM)
In short: (§1)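 Relative viability is defined as nuclei in treated wells over nuclei in vehicle wells. Duplicate plates were run and medians reported. Lung cancer cell lines in 1536-well plates were dosed by pin tool one day after seeding, with one drug or with a fixed anchor-drug dose plus five library-drug doses (not always all listed) in √10 steps, and nuclei were counted after 5 days.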

OSI-027 + Luminespib = compound: COc1cccc2cc(-c3nc([C@H]4CC[C@H](C(=O)O)CC4)n4ncnc(N)c34)[nH]c12 [OSI-027] + CCNC(=O)c1noc(-c2cc(C(C)C)c(O)cc2O)c1-c1ccc(CN2CCOCC2)cc1 [Luminespib] (partner 0.01 µM)
In short: as §1

OSI-027 + Dasatinib = compound: COc1cccc2cc(-c3nc([C@H]4CC[C@H](C(=O)O)CC4)n4ncnc(N)c34)[nH]c12 [OSI-027] + Cc1nc(Nc2ncc(C(=O)Nc3c(C)cccc3Cl)s2)cc(N2CCN(CCO)CC2)n1 [Dasatinib] (partner 0.075 µM)
In short: as §1

Alpelisib + Crizotinib = compound: Cc1nc(NC(=O)N2CCC[C@H]2C(N)=O)sc1-c1ccnc(C(C)(C)C(F)(F)F)c1 [Alpelisib] + C[C@@H](Oc1cc(-c2cnn(C3CCNCC3)c2)cnc1N)c1c(Cl)ccc(F)c1Cl [Crizotinib] (partner 1 µM)
In short: as §1

How did the relative viability (Vemurafenib + Foretinib; first compound 0.03162 µM) turn out when NCI-H1355 was run?
Its relative viability is 0.922.

And the relative viability (Vemurafenib + Foretinib; first compound 0.1 µM)?
The relative viability was 0.924.

What about the relative viability (Vemurafenib + Foretinib; first compound 0.3162 µM) of the same cell line?
Its relative viability is 1.

What about the relative viability (Vemurafenib + Foretinib; first compound 1 µM) of the same cell line?
Its relative viability is 1.03.

And the relative viability (OSI-027 + Luminespib; first compound 0.01 µM)?
The relative viability was 0.604.

And the relative viability (OSI-027 + Luminespib; first compound 0.03162 µM)?
The relative viability was 0.582.

And the relative viability (OSI-027 + Luminespib; first compound 0.1 µM)?
Its relative viability is 0.589.

And the relative viability (OSI-027 + Luminespib; first compound 0.3162 µM)?
The relative viability was 0.416.

What about the relative viability (OSI-027 + Luminespib; first compound 1 µM) of the same cell line?
The relative viability was 0.406.

What about the relative viability (OSI-027 + Dasatinib; first compound 0.01 µM) of the same cell line?
Its relative viability is 0.718.

And the relative viability (OSI-027 + Dasatinib; first compound 0.03162 µM)?
Its relative viability is 0.564.

And the relative viability (OSI-027 + Dasatinib; first compound 0.1 µM)?
Its relative viability is 0.534.

And the relative viability (OSI-027 + Dasatinib; first compound 0.3162 µM)?
Its relative viability is 0.409.

And the relative viability (OSI-027 + Dasatinib; first compound 1 µM)?
The relative viability was 0.324.

What about the relative viability (Alpelisib + Crizotinib; first compound 0.04 µM) of the same cell line?
Its relative viability is 1.07.

What about the relative viability (Alpelisib + Crizotinib; first compound 0.1265 µM) of the same cell line?
Its relative viability is 1.11.

What about the relative viability (Alpelisib + Crizotinib; first compound 0.4 µM) of the same cell line?
The relative viability was 1.09.

And the relative viability (Alpelisib + Crizotinib; first compound 1.265 µM)?
The relative viability was 0.809.

What about the relative viability (Alpelisib + Crizotinib; first compound 4 µM) of the same cell line?
The relative viability was 0.824.

Which relative viability (Vemurafenib + Foretinib; first compound 0.03162 µM) does the source give for NCI-H727 here?
Its relative viability is 0.883.

What about the relative viability (Vemurafenib + Foretinib; first compound 0.1 µM) of the same cell line?
The relative viability was 0.768.

What about the relative viability (Vemurafenib + Foretinib; first compound 0.3162 µM) of the same cell line?
The relative viability was 1.31.

What about the relative viability (Vemurafenib + Foretinib; first compound 1 µM) of the same cell line?
Its relative viability is 0.969.

What about the relative viability (OSI-027 + Luminespib; first compound 0.01 µM) of the same cell line?
The relative viability was 0.444.

What about the relative viability (OSI-027 + Luminespib; first compound 0.03162 µM) of the same cell line?
Its relative viability is 0.328.

And the relative viability (OSI-027 + Luminespib; first compound 0.1 µM)?
Its relative viability is 0.381.

What about the relative viability (OSI-027 + Luminespib; first compound 0.3162 µM) of the same cell line?
Its relative viability is 0.318.

And the relative viability (OSI-027 + Luminespib; first compound 1 µM)?
The relative viability was 0.479.

What about the relative viability (OSI-027 + Dasatinib; first compound 0.01 µM) of the same cell line?
The relative viability was 0.368.

And the relative viability (OSI-027 + Dasatinib; first compound 0.03162 µM)?
Its relative viability is 1.04.

What about the relative viability (OSI-027 + Dasatinib; first compound 0.1 µM) of the same cell line?
Its relative viability is 0.354.

And the relative viability (OSI-027 + Dasatinib; first compound 0.3162 µM)?
The relative viability was 0.394.

What about the relative viability (OSI-027 + Dasatinib; first compound 1 µM) of the same cell line?
Its relative viability is 0.339.

What about the relative viability (Alpelisib + Crizotinib; first compound 0.04 µM) of the same cell line?
Its relative viability is 0.839.

What about the relative viability (Alpelisib + Crizotinib; first compound 0.1265 µM) of the same cell line?
Its relative viability is 0.771.

And the relative viability (Alpelisib + Crizotinib; first compound 0.4 µM)?
Its relative viability is 0.891.

And the relative viability (Alpelisib + Crizotinib; first compound 1.265 µM)?
The relative viability was 0.717.

What about the relative viability (Alpelisib + Crizotinib; first compound 4 µM) of the same cell line?
Its relative viability is 0.508.

For NCI-H2023, which relative viability (Vemurafenib + Foretinib; first compound 0.03162 µM) is on record?
The relative viability was 0.881.

What about the relative viability (Vemurafenib + Foretinib; first compound 0.1 µM) of the same cell line?
Its relative viability is 0.811.

And the relative viability (Vemurafenib + Foretinib; first compound 0.3162 µM)?
Its relative viability is 1.09.

And the relative viability (Vemurafenib + Foretinib; first compound 1 µM)?
The relative viability was 0.742.

What about the relative viability (OSI-027 + Luminespib; first compound 0.01 µM) of the same cell line?
The relative viability was 0.812.

What about the relative viability (OSI-027 + Luminespib; first compound 0.03162 µM) of the same cell line?
The relative viability was 0.59.

What about the relative viability (OSI-027 + Luminespib; first compound 0.1 µM) of the same cell line?
The relative viability was 0.646.

What about the relative viability (OSI-027 + Luminespib; first compound 0.3162 µM) of the same cell line?
Its relative viability is 0.709.

And the relative viability (OSI-027 + Luminespib; first compound 1 µM)?
The relative viability was 0.27.

And the relative viability (OSI-027 + Dasatinib; first compound 0.01 µM)?
Its relative viability is 0.588.

And the relative viability (OSI-027 + Dasatinib; first compound 0.03162 µM)?
Its relative viability is 0.621.

And the relative viability (OSI-027 + Dasatinib; first compound 0.1 µM)?
Its relative viability is 0.505.

And the relative viability (OSI-027 + Dasatinib; first compound 0.3162 µM)?
Its relative viability is 0.338.

And the relative viability (OSI-027 + Dasatinib; first compound 1 µM)?
The relative viability was 0.192.

What about the relative viability (Alpelisib + Crizotinib; first compound 0.04 µM) of the same cell line?
Its relative viability is 0.53.

And the relative viability (Alpelisib + Crizotinib; first compound 0.1265 µM)?
Its relative viability is 0.565.

And the relative viability (Alpelisib + Crizotinib; first compound 0.4 µM)?
The relative viability was 0.476.

And the relative viability (Alpelisib + Crizotinib; first compound 1.265 µM)?
Its relative viability is 0.389.

What about the relative viability (Alpelisib + Crizotinib; first compound 4 µM) of the same cell line?
The relative viability was 0.257.

NCI-H2009 was tested. Which relative viability (Vemurafenib + Foretinib; first compound 0.03162 µM) did it give?
The relative viability was 1.19.

What about the relative viability (Vemurafenib + Foretinib; first compound 0.1 µM) of the same cell line?
The relative viability was 1.18.

And the relative viability (Vemurafenib + Foretinib; first compound 0.3162 µM)?
Its relative viability is 1.06.

And the relative viability (Vemurafenib + Foretinib; first compound 1 µM)?
The relative viability was 1.06.

What about the relative viability (OSI-027 + Luminespib; first compound 0.01 µM) of the same cell line?
The relative viability was 1.08.

And the relative viability (OSI-027 + Luminespib; first compound 0.03162 µM)?
The relative viability was 1.06.

And the relative viability (OSI-027 + Luminespib; first compound 0.1 µM)?
Its relative viability is 1.05.

What about the relative viability (OSI-027 + Luminespib; first compound 0.3162 µM) of the same cell line?
The relative viability was 0.924.

What about the relative viability (OSI-027 + Luminespib; first compound 1 µM) of the same cell line?
Its relative viability is 0.603.

What about the relative viability (OSI-027 + Dasatinib; first compound 0.01 µM) of the same cell line?
Its relative viability is 0.271.

What about the relative viability (OSI-027 + Dasatinib; first compound 0.03162 µM) of the same cell line?
The relative viability was 0.264.

And the relative viability (OSI-027 + Dasatinib; first compound 0.1 µM)?
The relative viability was 0.248.

What about the relative viability (OSI-027 + Dasatinib; first compound 0.3162 µM) of the same cell line?
Its relative viability is 0.213.

And the relative viability (OSI-027 + Dasatinib; first compound 1 µM)?
The relative viability was 0.207.

And the relative viability (Alpelisib + Crizotinib; first compound 0.04 µM)?
Its relative viability is 1.04.

And the relative viability (Alpelisib + Crizotinib; first compound 0.1265 µM)?
The relative viability was 1.02.

And the relative viability (Alpelisib + Crizotinib; first compound 0.4 µM)?
Its relative viability is 1.11.

What about the relative viability (Alpelisib + Crizotinib; first compound 1.265 µM) of the same cell line?
Its relative viability is 0.953.

And the relative viability (Alpelisib + Crizotinib; first compound 4 µM)?
Its relative viability is 0.831.

What does the source list for NCI-H322M?
relative viability (Vemurafenib + Foretinib; first compound 0.03162 µM): 0.923; relative viability (Vemurafenib + Foretinib; first compound 1 µM): 1.02; relative viability (OSI-027 + Luminespib; first compound 0.01 µM): 0.84; relative viability (OSI-027 + Luminespib; first compound 0.03162 µM): 0.831; relative viability (OSI-027 + Luminespib; first compound 0.1 µM): 0.66; relative viability (OSI-027 + Luminespib; first compound 0.3162 µM): 0.446; relative viability (OSI-027 + Luminespib; first compound 1 µM): 0.369; relative viability (OSI-027 + Dasatinib; first compound 0.01 µM): 0.252; relative viability (OSI-027 + Dasatinib; first compound 0.03162 µM): 0.236; relative viability (OSI-027 + Dasatinib; first compound 0.1 µM): 0.224; relative viability (OSI-027 + Dasatinib; first compound 0.3162 µM): 0.233; relative viability (OSI-027 + Dasatinib; first compound 1 µM): 0.248; relative viability (Alpelisib + Crizotinib; first compound 0.04 µM): 0.797; relative viability (Alpelisib + Crizotinib; first compound 0.1265 µM): 0.955; relative viability (Alpelisib + Crizotinib; first compound 0.4 µM): 0.892; relative viability (Alpelisib + Crizotinib; first compound 1.265 µM): 0.708; relative viability (Alpelisib + Crizotinib; first compound 4 µM): 0.693
